One experiment has as its system nox1. As to the kind of experiment: Nox1 immunofluorescence: subcellular translocation in keratinocytes. The class given is in vivo, zebrafish. The note with it: EMD534085 alone, 96 hr. The method, then:
The stock solution was divided into 20-30 μl aliquots and stored at −20 °C until use (maximal 6 months). Immediately prior to use, paclitaxel was diluted in Ringer's solution and added to dechorionated larval zebrafish. The larval fish were placed individually or in small groups into wells of a 12-well plate containing the treatment solutions. The control group was 0.05% DMSO. Plates were incubated at 28.5 °C and protected from light. Treatment lengths are indicated in the Drawings, Description of the Drawings, and Examples where appropriate. […] EMD534085, Eg5 inhibitor (MedChemExpress, Cat. No. HY-15000) was diluted in 100% DMSO to make a 10 mM stock solution and stored at −20 °C. […] The solutions were exchanged every 48 hr. […]
Measurements were determined by measuring fluorescence intensity in Fiji using single slice and single channel modes. First, a line using the line tool was placed along the plasma membrane that was clearly distinguishable from the cytoplasm due to increased fluorescence compared with the cytoplasm in all treatment groups. The measurement tool was subsequently selected to measure the mean fluorescence intensity. […] To determine the mean cytoplasmic fluorescence intensity, nuclei were first overlaid with Nox1 fluorescence to ensure the exclusion of nuclear measurements. […] The fluorescence data was exported to Excel and the ratios calculated.

The subject of experiment [1] is microtubule acetylation in keratinocytes. As to the kind of experiment: Keratinocyte microtubule acetylation (K40). The class given is in vivo, zebrafish. The note with it: 22 μM paclitaxel, 96 hr, with and without EMD534085. As to the method:
Larval fish were transferred into […] glass vials and fixed in 4% paraformaldehyde (PFA)/1× Phosphate-buffered saline (PBS) for 1.5 hr at room temperature, with gentle rocking. Following a 5-minute incubation in 1×PBS+0.1% Tween-20 (PBST), zebrafish were permeabilized in 1×PBS+0.1% Triton X-100 for 10-30 min. Larval fish were transferred into 2 ml reaction tubes and incubated in blocking buffer (1×PBST+5% BSA) for 30 min at room temperature, with rocking. Larval fish were further incubated overnight in antibody solution (Millipore Sigma, Cat. No. AB3201, 1:300 rabbit anti-GluTub; Sigma, Cat No. T6793, 1:500 mouse anti-acetylated tubulin) in blocking buffer at 4 °C, on a rotator. The next morning, larval fish were transferred into 6-well plates and washed 4×15 min in 1×PBST at room temperature, with rocking. This was followed by incubation in secondary antibody (goat anti-rabbit Cy5, Abcam, Cat. No. ab97077; goat anti-mouse Cy3, Abcam, Cat. No. ab97035) and 1:10,000 Hoechst 33342 (ThermoFisher Scientific, Cat. No. 62249, 20 mM solution) in blocking buffer for 1 hr at room temperature, with rocking. Fish were covered to avoid bleaching. […]

The test system of the next experiment is dfMTs in keratinocytes. As to the kind of experiment: dfMT fascicle width. The class given is in vivo, zebrafish. The conditions noted are these: 96 hr. As to the method: (§1) The stock solution was divided into 20-30 μl aliquots and stored at −20 °C until use (maximal 6 months). Immediately prior to use, paclitaxel was diluted in Ringer's solution and added to dechorionated larval zebrafish. The larval fish were placed individually or in small groups into wells of a 12-well plate containing the treatment solutions. The control group was 0.05% DMSO. Plates were incubated at 28.5 °C and protected from light. Treatment lengths are indicated in the Drawings, Description of the Drawings, and Examples where appropriate. […] EMD534085, Eg5 inhibitor (MedChemExpress, Cat. No. HY-15000) was diluted in 100% DMSO to make a 10 mM stock solution and stored at −20 °C. […] The solutions were exchanged every 48 hr.
(§2) Larval fish were transferred into […] glass vials and fixed in 4% paraformaldehyde (PFA)/1× Phosphate-buffered saline (PBS) for 1.5 hr at room temperature, with gentle rocking. Following a 5-minute incubation in 1×PBS+0.1% Tween-20 (PBST), zebrafish were permeabilized in 1×PBS+0.1% Triton X-100 for 10-30 min. Larval fish were transferred into 2 ml reaction tubes and incubated in blocking buffer (1×PBST+5% BSA) for 30 min at room temperature, with rocking. […]
dfMT thicknesses (defined as the mean width of a given dfMT) was manually measured at high magnification using the Slice mode in Imaris and the Line tool for measuring the distance between two points. […]

For a further experiment, the system named is Eg5. As to the kind of experiment: Eg5 immunofluorescence in zebrafish caudal fin. In kind it is in vivo. The note with it: 22 μM paclitaxel, 96 hr. The method, then:
as §1, §2

Each structure is given as a SMILES string.

Consider `CN(C)CCNC(=O)NC[C@H]1CC[C@@H]2[C@H](O1)c1cc(C(F)(F)F)ccc1N[C@H]2c1ccccc1` [EMD534085], for which, in the experiment with nox1, the “Nox1 Membrane:cytoplasmic ratio” value is on record as 1.7±0.1 and the “Nox1 Nucleus:cytoplasmic ratio” value was 1.36±0.08.
As for `CC(=O)O[C@H]1C(=O)[C@@]2(C)[C@H]([C@H](OC(=O)c3ccccc3)[C@]3(O)C[C@H](OC(=O)[C@H](O)[C@@H](NC(=O)c4ccccc4)c4ccccc4)C(C)=C1C3(C)C)[C@]1(OC(C)=O)CO[C@@H]1C[C@@H]2O` [paclitaxel], the keratinocyte microtubule acetylation entry in experiment [1] is “an increase in keratinocyte microtubule acetylation after 96 hr paclitaxel treatment with and without EMD534085”. Further, the “fascicle width of dMTs” value with dfMTs in keratinocytes (100 nM paclitaxel) is 6.0±0.49 μm; in the experiment on dfMTs in keratinocytes (22 μM paclitaxel), 3.4±0.17 μm. For the same compound, the Eg5 localization/induction result in the experiment with Eg5 was “promoted Eg5 puncta formation”.

(Values after patent publication US20260345584A1, “METHODS AND PHARMACEUTICAL COMPOSITIONS FOR TREATING CHEMOTHERAPY-INDUCED PERIPHERAL NEUROPATHY WITH EG5 INHIBITORS” (UNIVERSITY OF MIAMI, priority 2023, published 2026).)
